For data set [1], the system named is NHIK 3025 cells. In words: Protein synthesis rate ((3H)valine incorporation). Format: cell-based, human. As to conditions: 3.2 mM. The text has this: (§1) Human cells of the established line NHIK 3025, originating from a cervical carcinoma in situ (Nordbye, K., and Oftebro, R. Exp. Cell Res., 58: 458, 1969), Oftebro, R., and Nordbye, K., Exp. Cell Res., 58: 459-460, 1969) were cultivated in Medium E2a (Puck, T.T. et al., J. Exp. Med., 106:145-165, 1957) supplemented with 20% human (prepared at the laboratory) and 10% horse serum (Grand Island Biological Co.). The cells are routinely grown as monolayers in tissue culture flasks.
(§2) The cells were kept in continuous exponential growth by frequent reculturing, i.e., every second and third day, and synchronized cell populations with a high degree of synchrony were obtained by repeated selection of mitotic cells (Pettersen, E. O. et al, Cell Tissue Kinet., 10: 511-522, 1977). During the synchronization procedure, the cells were kept in Medium E2a, and the whole experiment took place in a walk-in incubator at 37° C. Under growth conditions as used here, the NHIK 3025 cells have a medium cell-cycle time of ~18 hr, with medium G1, S1 and G2 durations of ~7, ~8, and ~2.5 hr, respectively.
The rate of protein synthesis was calculated as described previously (Ronning, O. W. et al., J. Cell Physiol., 107: 47-57, 1981). Briefly, cellular protein was labeled to saturation during a 2-day preincubation with (^14 C)valine of constant specific radioactivity (0.5 Ci/mol) prior to the experiment. This was achieved by using a high concentration of valine so that the dilution of (^14 C)valine by intracellular valine and by proteolytically generated valine will be negligible (Ronning, O. W., et al. Exp. Cell Res. 123: 63-72, 1979), thus keeping the specific radioactivity at a constant level. The rate of protein synthesis was calculated from the incorporation of (3H)valine of constant specific activity. The incorporation measurements were related to the total of (^14 C) radioactivity in protein at the beginning of the respective measurement periods and expressed as the percentage per hr (Ronning, O. W. et al, J. Cell, Physiol. 107: 47-57, 1981).
[…] The last measurements were done to test the reversibility of the drugs. Drug concentration: 3.2 mM.

The nature of data set [2]: Concentration of BG or BG-d1 in blood samples after iv injection (HPLC). The following applies: rat, iv. Format: in vivo, male Wistar rats. The protocol:
Measurement of concentration of 4,6-O-benzylidene-D-glucose (BG) or 4,6-O-deuterobenzylidene-d1 -D-glucose (BG-d1) in blood samples (Table 5).
(§3) Blood samples were taken from male Wistar rats immediately before and at several intervals after intravenous injection of BG or BG-d1. Blood serum was separated by centrifugation. Equal amounts of blood serum and HPLC-grade acetonitrile were mixed and centrifuged at 13,000 rpm (15,000×g) for 5 minutes. Samples were then analyzed for BG or BG-d1 content by High Performance Liquid Chromatography (HPLC). Samples were placed in an autosampler programmed for replicate injections of […] each onto a 4.6×250 mm LC18 HPLC column. The column was eluted with 45% aqueous methanol delivered at 1 ml/min. BG or BG-d1 were detected by using a spectrofluorometer set at excitation and emission wavelengths of 255 and 283 nm, respectively. The slit width used was 10 nm. Quantitation of the amount of BG or BG-d1 in serum samples was performed with an electronic integrator calibrated with standard solutions of BG or BG-d1 in the mobile phase (Pettersen et al., Anticancer Res., 6; 147-152, 1986).
We have compared the metabolism in rats of BG as well as of deuterated BG (BG-d1). In Table 5 the serum concentration of BG or BG-d1 is shown at various time points after a single iv injection of each drug, respectively.

Data set [3] is described as follows: BG or BG-d1 metabolites in blood samples after iv injection (HPLC peak height). Format: in vivo, male Wistar rats. As to conditions: rat, iv, BG versus BG-d1. The protocol:
as §3
Measurement of BG or BG-d1 metabolites in blood samples (Table 6)
HPLC of blood samples was performed as indicated above. Relative amounts of BG- or BG-d1 -metabolite were determined by peak height analysis. The peak height from the electronic integrator (in microvolts) of samples taken 30 minutes after iv injection of BG, or 60 minutes after iv injection of BG-d1 were normalized to 1. All other metabolite peaks were compared with these values.
At the same time as BG or BG-d1 metabolism was being determined, a separate metabolite peak appeared in HPLC chromatograms. The increase in BG- and BG-d1 -metabolite and subsequent clearance was measured.

In data set [4] the test system is NHIK 3025 cells. In words: Cell survival (colony formation) after 24 hr treatment. Format: cell-based. The following applies: Homo sapiens, NHIK3025, 24 h.
Text: as §1, §2
For measurement of cell survival, appropriate numbers of cells were seeded in plastic Petri dishes (.phi.=5 cm). The number of cells seeded into each dish was adjusted such that the number of surviving cells would be approximately 150 per dish. While exponentially growing (asynchronous) cells were trypsinized before seeding, synchronized cells were seeded immediately after selection. After about 2 hr, the cells had attached to the bottom of the dishes, and the treatment was started by replacing the medium with medium containing the appropriate drug concentration. After the desired time of treatment, the drug-containing medium was removed, and fresh medium was added. The dishes were rinsed once with the same medium as was to be added on addition or removal of drug. After 10 to 12 days at 37° C. in a CO2 incubator, the cells were fixed in ethanol and stained with methylene blue before the colonies were counted.
The cytotoxic effect of benzaldehyde and of deuterobenzaldehyde-d1 was tested on asynchronous, exponentially growing NHIK 3025 cells by counting the number of cells able to form colonies after 24 hr treatment in Petri dishes. In Table 1 the results represent 2 different, independent experiments where the numbers give the mean fraction of surviving cells from 10 parallel dishes (± standard error).
Fraction of cells surviving 24 hr treatment with benzaldehyde or deuterobenzaldehyde - d1 in Petri dishes. (The values represent the mean±standard error from 10 different dishes.)

Data set [5] can be described thus: Solubility in water, pH of solution and stability of benzylidene ascorbic acid compounds. Format: physicochemical. The following applies: for Stability (in words): free acid compared with mono-basic salt. The source says:
The structural formula is shown below. The structure has been confirmed by IR and NMR. […] The pH of the solution is 6.6. [drawing 8] The beneficial properties of the drug composition according to the present invention are illustrated below in connection with a series of experiments which have been performed.

The subject of data set [6] is NHIK 3025 cells. In words: Duration of mitosis of synchronized cells. The data set is classed as cell-based, human. The following applies: 3.2 mM during mitosis.
Text: as §1, §2
(§4) For detection of the drug effects on cell-cycle kinetics, the same methods were used as described previously (Lindmo, T., and Pettersen, E. O., Cell Tissue Kinet., 12: 43-57, 1979), (Pettersen, E. O. et al, Eur. J. Cancer Clin. Oncol., 19: 507-514; 1983), (Ronning, O.W. et al., J. Cell. Physiol., 109: 411-419, 1981). Briefly, the selected mitotic cells were seeded into 8 tissue culture flasks (25 sq cm) 5000 cells per flask. The cells divided within 1 hr and attached as doublets to the bottom of the flasks. […] Analyses of durations of mitosis were performed from these observations (Table 4).
This effect is probably directly related to the aldehyde group (Pettersen et al. Cancer Res. 45: 2085-2091, 1985). If the deuterated aldehyde group induces different biological effects from the undeuterated one it is therefore good reason to expect this to be expressed as a difference in effect on cells in mitosis. In Table 4 results are shown on prolongation of mitosis of synchronized cells treated with benzaldehyde or deuterobenzaldehyde-d1 during mitosis. The numbers in the table represent the percentage of the cells having a duration of mitosis below 1 hr (which is normal for untreated cells) or above the number of hours indicated on top of each column.

In data set [7] the test system is NHIK 3025 cells. In words: Duration of cell cycle-time of synchronized cells. As to conditions: 8 hr treatment. The data set is classed as cell-based, human.
Text: as §1, §2, §4
This is shown by the data in Table 3, where we have used synchronized cells treated over an 8 hr period starting 2 hr after mitotic selection, i.e. when the cells were in early Gl.

The mark [8] stands for this setting: read-out: Cell survival of cells treated for 24 hr.
The mark [9] stands for this setting: read-out: Fraction of cells surviving 24 hr treatment.

This is an account of results in US4874780A, “Anticancer compounds” (Norsk Hydro a.s., priority 1987, dated 1989).

SMILES strings stand for the structures. Entries after “also recorded” stand apart in the source; their conditions may differ. Structures can show the parent of a compound that is named as a salt. Where two headings read alike, the source gives them in different places.

Take `[2H]C1(c2ccccc2)OC[C@H]2OC(O)[C@H](O)[C@@H](O)[C@@H]2O1` (stereo partly drawn) [BG-d1, 4,6-O-deuterobenzylidene-d1 -D-glucose]: the Protein synthesis in the data set on NHIK 3025 cells [1] (asynchronous cells, 3 hr treatment, pulse 0-1 hr, during treatment, Table 8, control 5.7 ± 0.5) is 3.0 ± 0.3 %/hr; in the data set on NHIK 3025 cells [1] (asynchronous cells, 3 hr treatment, pulse 2-3 hr, during treatment, Table 8, control 5.7 ± 0.5), 3.4 ± 0.3 %/hr; with NHIK 3025 cells [1] (synchronized cells, 22 hr treatment, pulse 21-22 hr, during treatment, Table 8, control 5.3 ± 0.2), 4.6 ± 0.2 %/hr; in the data set with NHIK 3025 cells [1] (synchronized cells, 22 hr treatment, pulse 23-24 hr, after treatment, Table 8, control 5.3 ± 0.2), 5.4 ± 0.1 %/hr. Besides, the “Metabolism and clearance from serum (in words)” value in data set [2] (compared with BG) was “slower than that of the undeuterated compound; also recorded: clearly slower metabolism and clearance from serum”. In data set [2] (serum, 0 minutes (estimated), read-out: Amount of unmetabolized drug in blood samples), the concentration at 0 h is 345 µM. Besides, the concentration at 2 min in data set [2] (serum, 2 minutes, read-out: Amount of unmetabolized drug in blood samples) is 220 ± 20 µM. For the same compound, in data set [2] (serum, 5 minutes, read-out: Amount of unmetabolized drug in blood samples), the concentration at 5 min worked out at 160 ± 20 µM. For the same compound, the concentration at 10 min in data set [2] (serum, 10 minutes, read-out: Amount of unmetabolized drug in blood samples) was determined as 140 ± 20 µM. Besides, the concentration at 0.25 h in data set [2] (serum, 15 minutes, read-out: Amount of unmetabolized drug in blood samples) was determined as 100 ± 20 µM. Also, the concentration at 20 min in data set [2] (serum, 20 minutes, read-out: Amount of unmetabolized drug in blood samples) was found to be 97 ± 3 µM. Besides, the concentration at 0.5 h in data set [2] (serum, 30 minutes, read-out: Amount of unmetabolized drug in blood samples) amounted to 66 ± 15 µM. In data set [2] (serum, 60 minutes, N.F. = Not Found, read-out: Amount of unmetabolized drug in blood samples), the concentration at 1 h was 10 ± 5 µM. In addition, the half-life (commonly the time in which the quantity being followed falls by half) in data set [2] (serum, read-out: half-life in vivo) was ~15 min. For the same compound, the “Clearance (or further metabolization) of metabolite (in words)” value in data set [3] is “slower clearance kinetics than that formed from BG”. In the data set on NHIK 3025 cells [4] (setting [8]), the viability at 6400 µM came to 33 ± 7%. In addition, the viability at 12800 µM with NHIK 3025 cells [4] (setting [8]) amounted to 0.8 ± 0.3%.
Consider `[2H]C1(c2ccccc2)OC[C@@H]([C@H]2OC(=O)C(O)=C2O)O1` (stereo partly drawn) [mono-sodium salt of deutero 5,6-O-benzylidene-L-ascorbic aci] [mono-sodium salt of deutero 5,6-O-benzylidene-L-ascorbic acid], for which the “pH of the solution” value in data set [5] (aqueous solution of mono-sodium salt) is given as 6.6. For the same compound, the “Stability (in words)” value in data set [5] is “much more stable”. The Solubility in water entry in data set [5] (water) was “readily soluble in water”.
With `[2H]C(=O)c1ccccc1` [Deuterobenzaldehyde-d1], the Protein synthesis in the data set with NHIK 3025 cells [1] (4 hr treatment, pulse 0-1, during treatment, Table 2, control 6.8 ± 0.9) is on record as 3.6 ± 0.3 %/hr; in the data set with NHIK 3025 cells [1] (4 hr treatment, pulse 4-5, after treatment, Table 2, control 6.8 ± 0.9), 4.7 ± 0.3 %/hr; in the data set with NHIK 3025 cells [1] (4 hr treatment, pulse 5-6, after treatment, Table 2, control 6.8 ± 0.9), 5.8 ± 0.3 %/hr. Also, the “Percentage of cells with duration of mitosis >4 h” value in the data set on NHIK 3025 cells [6] came to 70%. In the data set on NHIK 3025 cells [6], the “Percentage of cells with duration of mitosis >5 h” value turned out to be 69%. Also, the “Percentage of cells with duration of mitosis >6 h” value in the data set on NHIK 3025 cells [6] is 64%. Further, the “Percentage of cells with duration of mitosis >3 h” value in the data set with NHIK 3025 cells [6] (control 2%) is recorded as 74%. In addition, the “Percentage of cells with duration of mitosis >2 h” value in the data set with NHIK 3025 cells [6] (control 4%) is 81%. The “Percentage of cells with duration of mitosis >1 h” value in the data set with NHIK 3025 cells [6] (control 17%) is recorded as 87%. Further, the “Percentage of cells with duration of mitosis <1 h” value in the data set with NHIK 3025 cells [6] (control 83%) was 13%. In the data set with NHIK 3025 cells [4] (setting [9]), the viability at 3200 µM stood at 68 ± 14%. For the same compound, the viability at 12800 µM with NHIK 3025 cells [4] (setting [9]) was determined as 0.56 ± 0.2%. The Prolongation in the data set on NHIK 3025 cells [7] (2 mM, versus control 1) stood at 15.2%; in the data set on NHIK 3025 cells [7] (2.5 mM, versus control 2), 108.3%. In addition, the “Duration of the part of the cell cycle starting 2 hr after selection” value with NHIK 3025 cells [7] (2 mM, control 1 16.5) came to 19.0; with NHIK 3025 cells [7] (2.5 mM, control 2 16.8), 35.0.
`[2H]C1(c2ccccc2)OC[C@@H]([C@H]2OC(=O)C(O)=C2O)O1` (stereo partly drawn) [deutero 5,6-O-benzylidene ascorbic acid, deutero 5,6-O-benzylidene-L-ascorbic acid]: in data set [5], the “Stability (in words)” value is recorded as “instability”.
